Counter-ions that a name gives are not always drawn. Like-named read-outs stand apart in the source and are kept apart here.
Legend:
[1] = Mucolytic activity in vitro, consistency of human expectoration; details: 12 experiments
Description: The experiment was carried out "in vitro" according to the method of R. S. Hirsch (Bull. […] Table IV lists the percentage decrease of the expectoration consistency provoked by the compound of this invention in comparison with dithiothreitol and acetylcysteine which are known mucolytic agents.

[2] = Antiinflammatory activity, carrageenin-induced oedema test; type: in vivo, rats
Description: This effect was evaluated by means of an experimental model reproducing acute inflammation in rats: for this purpose the carrageenin-induced oedema test was employed following the method described by C. A. Winter (J. Pharmac. Exp. […] Wong, J. F. Gardocki and T. P. Pruss, J. Pharmac. Exp. Ther. 185 (1): 127, 1973). Table I lists the tested compounds, the concentration thereof, routes of administration and relative percentage oedema inhibitions; the data are commented upon at the end of the Tables.

[3] = Analgesic activity, phenylquinone-induced writhing test; type: in vivo
Description: The inhibiting effect on the abdominal contractions induced by phenyl-p-quinone was calculated by the following formula: [formula]
Table II lists the doses, routes of administration and their efficacy expressed as percentage of protection.

[4] = Antitussive activity (method of Y. Kase); type: in vivo, albino male Guinea-pigs
Description: The antitussive effect on albino male Guinea-pigs weighing 300 g was evaluated using the method described by Y. Kase (Selected Pharmacological Testing Methods, p. 363, Marcel Dekker Inc., New York, 1968).

[5] = type: in vivo, male Wistar rats; details: for mean severity: scale 0 (no lesion) to 5 (perforations)
Description: Male Wistar rats weighing 180 g were randomized into groups of 10. Three doses of each compound were administered. One group received the vehicle alone (10 ml/kg b.w.). Each dose was given orally for four days consecutively and the rats were sacrificed on the fifth day for necropsy. The ulcerogenic effect was evaluated by the following scale:
(1) each haemorrhagic point at least 1 mm in diameter was scored as 1 lesion,
(2) haemorrhagic points less than 1 mm in diameter were scored in the following manner:
(c) 20 to 29=three lesions
(2) gastric mucosal irritation without haemorrhage: 1
(3) haemorrhagic points less than 1 mm in diameter: 2
(4) haemorrhagic points between 1 and 3 mm in diameter: 3
(5) haemorrhagic points larger than 3 mm in diameter: 4
By means of this scale it was possible to obtain the gastric damage index: [formula]

Q: With `O[C@H](CS)[C@H](O)CS` (racemic) [Dithiothreitol] as the compound, how does the “% decrease of expectoration consistency” value ([1]; 0.1 M (1.5%)) read?
A: 90%

Q: For `COc1ccc2c(c1)c(CC(=O)O)c(C)n2C(=O)c1ccc(Cl)cc1` [Indomethacin], which Oedema % inhibition ([2]; 2.5 mg/kg i.p., 2 h) is on record?
A: 21.0%

Q: What about the Oedema % inhibition ([2]; 2.5 mg/kg i.p., 4 h) of the same compound?
A: 20.0%

Q: And the Oedema % inhibition ([2]; 2.5 mg/kg i.p., 6 h)?
A: 17.0%

Q: And the Oedema % inhibition ([2]; 2.5 mg/kg i.p., 24 h)?
A: 2.5%

Q: What about the Oedema % inhibition ([2]; 2.5 mg/kg per os, 2 h) of the same compound?
A: 18.6%

Q: What about the Oedema % inhibition ([2]; 2.5 mg/kg per os, 4 h) of the same compound?
A: 20.7%

Q: What about the Oedema % inhibition ([2]; 2.5 mg/kg per os, 6 h) of the same compound?
A: 19.2%

Q: And the Oedema % inhibition ([2]; 2.5 mg/kg per os, 24 h)?
A: 2.6%

Q: And the Oedema % inhibition ([2]; 5 mg/kg i.p., 2 h)?
A: 30.0%

Q: And the Oedema % inhibition ([2]; 5 mg/kg i.p., 4 h)?
A: 29.0%

Q: And the Oedema % inhibition ([2]; 5 mg/kg i.p., 6 h)?
A: 23.0%

Q: What about the Oedema % inhibition ([2]; 5 mg/kg i.p., 24 h) of the same compound?
A: 3.4%

Q: What about the Oedema % inhibition ([2]; 5 mg/kg per os, 2 h) of the same compound?
A: 26.3%

Q: What about the Oedema % inhibition ([2]; 5 mg/kg per os, 4 h) of the same compound?
A: 29.1%

Q: What about the Oedema % inhibition ([2]; 5 mg/kg per os, 6 h) of the same compound?
A: 28.5%

Q: And the Oedema % inhibition ([2]; 5 mg/kg per os, 24 h)?
A: 2.7%

Q: And the Oedema % inhibition ([2]; 10 mg/kg i.p., 2 h)?
A: 49.7%

Q: And the Oedema % inhibition ([2]; 10 mg/kg i.p., 4 h)?
A: 46.0%

Q: What about the Oedema % inhibition ([2]; 10 mg/kg i.p., 6 h) of the same compound?
A: 48.1%

Q: What about the Oedema % inhibition ([2]; 10 mg/kg i.p., 24 h) of the same compound?
A: 8.0%

Q: What about the Oedema % inhibition ([2]; 10 mg/kg per os, 2 h) of the same compound?
A: 48.2%

Q: What about the Oedema % inhibition ([2]; 10 mg/kg per os, 4 h) of the same compound?
A: 49.0%

Q: And the Oedema % inhibition ([2]; 10 mg/kg per os, 6 h)?
A: 46.0%

Q: What about the Oedema % inhibition ([2]; 10 mg/kg per os, 24 h) of the same compound?
A: 7.9%

Q: Which results are given for `Cc1ccc(C(=O)c2ccc(CC(=O)O)n2C)cc1` [Tolmetin Na.2H2 O, 1-mehtyl-5-p-toluoyl-2-acetic acid sodium salt dihydrate]?
A: Oedema % inhibition ([2]; 25 mg/kg i.p., 2 h): 28.0%; Oedema % inhibition ([2]; 25 mg/kg i.p., 4 h): 29.1%; Oedema % inhibition ([2]; 25 mg/kg i.p., 6 h): 32.1%; Oedema % inhibition ([2]; 25 mg/kg i.p., 24 h): 8.9%; Oedema % inhibition ([2]; 25 mg/kg per os, 2 h): 24.6%; Oedema % inhibition ([2]; 25 mg/kg per os, 4 h): 26.2%; Oedema % inhibition ([2]; 25 mg/kg per os, 6 h): 30.1%; Oedema % inhibition ([2]; 25 mg/kg per os, 24 h): 6.2%; Oedema % inhibition ([2]; 50 mg/kg i.p., 2 h): 47.0%; Oedema % inhibition ([2]; 50 mg/kg i.p., 4 h): 49.1%; Oedema % inhibition ([2]; 50 mg/kg i.p., 6 h): 40.0%; Oedema % inhibition ([2]; 50 mg/kg i.p., 24 h): 7.1%; Oedema % inhibition ([2]; 50 mg/kg per os, 2 h): 43.1%; Oedema % inhibition ([2]; 50 mg/kg per os, 4 h): 46.0%; Oedema % inhibition ([2]; 50 mg/kg per os, 6 h): 41.3%; Oedema % inhibition ([2]; 50 mg/kg per os, 24 h): 9.1%; Oedema % inhibition ([2]; 100 mg/kg i.p., 2 h): 64.1%; Oedema % inhibition ([2]; 100 mg/kg i.p., 4 h): 65.8%; Oedema % inhibition ([2]; 100 mg/kg i.p., 6 h): 60.2%; Oedema % inhibition ([2]; 100 mg/kg i.p., 24 h): 11.2%; Oedema % inhibition ([2]; 100 mg/kg per os, 2 h): 60.8%; Oedema % inhibition ([2]; 100 mg/kg per os, 4 h): 60.0%; Oedema % inhibition ([2]; 100 mg/kg per os, 6 h): 64.5%; Oedema % inhibition ([2]; 100 mg/kg per os, 24 h): 14.6%; % protection ([3]; 5 mg/kg i.p.): 16.5%; % protection ([3]; 5 mg/kg per os): 15.0%; % protection ([3]; 10 mg/kg i.p.): 46.2%; % protection ([3]; 10 mg/kg per os): 40.6%; % protection ([3]; 20 mg/kg i.p.): 69.1%; % protection ([3]; 20 mg/kg per os): 62.0%; % inhibition, amplitude of coughs ([4]; 50 mg/kg i.p.): 0%; % inhibition, frequency of coughs ([4]; 50 mg/kg i.p.): 0%; % inhibition, amplitude of coughs ([4]; 50 mg/kg per os): 0%; % inhibition, frequency of coughs ([4]; 50 mg/kg per os): 0%; % inhibition, amplitude of coughs ([4]; 75 mg/kg i.p.): 0%; % inhibition, frequency of coughs ([4]; 75 mg/kg i.p.): 10%; % inhibition, amplitude of coughs ([4]; 75 mg/kg per os): 7%; % inhibition, frequency of coughs ([4]; 75 mg/kg per os): 0%; % inhibition, amplitude of coughs ([4]; 100 mg/kg i.p.): 7%; % inhibition, frequency of coughs ([4]; 100 mg/kg i.p.): 10%; % inhibition, amplitude of coughs ([4]; 100 mg/kg per os): 5%; % inhibition, frequency of coughs ([4]; 100 mg/kg per os): 5%; mean severity ([5]; 50 mg/kg orally, four days): 2; mean No. of lesions ([5]; 100 mg/kg orally, four days): 2.5; mean severity ([5]; 100 mg/kg orally, four days): 3.5; mean No. of lesions ([5]; 200 mg/kg orally, four days): 3; mean severity ([5]; 200 mg/kg orally, four days): 4; mean No. of lesions ([5]; rat, in vivo): 2

Q: With `CC(=O)N[C@@H](CS)C(=O)O` [acetylcysteine] as the compound, how does the “% decrease of expectoration consistency” value ([1]; […] (20.0%)) read?
A: 81%
